# Experimental data as given in patent publication US9476099B2 (TRUSTEES OF DARTMOUTH COLLEGE, priority 2012, dated 2016).
# Experiments:
# NT2/D1 cells [1] = assay: Cell-Titre Glo viable cell growth and survival, 3 day decitabine; format: cell-based; conditions: NT2/D1
# Description: Indicated doses of decitabine were added fresh each day for three days to exponentially growing cultures. Viable cell growth and survival were measured. Data are normalized to no drug treatment. EC cells are NT2/D1, NT2D1/R1, 833K, 833KCP, and Tera-1. Data are the average of 3 experiments in biological duplicate except for MCF-7 cells, which were assayed twice. Error bars are standard deviation (S.D.).
# Cell growth and viability of five EC cell lines (NT2/D1, NT2D1/R1, 833K, 833KCP, and Tera-1) were determined, including two cell lines that are cisplatin-resistant (NT2/D1-R1 and 833KCP). Three control somatic tumor cell lines were also tested (HCT116, MCF7 and U2OS). […] Viable cell growth and survival were measured using Cell-Titre Glo (Promega) assays. […] These higher values are similar to the values shown in FIG. 1 for somatic tumor cell lines (MCF7, U2OS and HCT116).
# NT2/D1, NT2D1-R1, 833K, 833K-CP, Tera-1, U20S, and HCT116 cells were cultured in DMEM with 10% FBS supplemented with glutamine and antibiotics except for MCF7 cells that were cultured in F12-DMEM. The derivation of the NT2/D1-resistant NT2/D1-R1 cell line has been previously described (Curtin et al. 2001. Oncogene 20:2559-2569; Kerley-Hamilton et al. 2007. Biochim. Biophys. Acta 1769:209-219). Cells were treated with the indicated dosages of 5-azadeoxycytidine (5-aza-CdR) for 3 days. This drug was replenished each day. Cisplatin (Bristol Laboratories) treatments were performed at the concentrations and time points indicated. To assess cell proliferation and survival, CELL-TITRE GLO (Promega) assays were performed.
# (§1) Cells were cultured in DMEM media (Gibco) with 10% FBS. Decitabine was added fresh each day. Lentiviral control cells and the stable shRNA DNMT3B knockdown cell line (NT2/D1-R1-sh84) were described previously (Beyrouthy et al. 2009. Cancer Res. 69:9360-9366). DNMT3B knockdown was greater than 90% as confirmed by western blot analysis. Cell proliferation and survival were assessed with the CELL-TITRE GLO assay (Promega). Cell cycle analysis with propidium iodine has been previously described (Kerley-Hamilton et al. 2005. Oncogene 24:6090-6100).
# [2] = system: phosphorylated H2AX in NT2/D1-R1 cells; assay: DNA damage by induction of phosphorylated H2AX (western blot); format: cell-based; conditions: cisplatin
# From the text: (§2) Importantly, decitabine-mediated H2AX activation also occurs in the presence of the caspase 3 inhibitor (Z-VAD-FMK) at concentrations that inhibit PARP cleavage.
# (§3) SYBR green-based real-time PCR (Applied Biosystems) was employed using the ddCT method normalized to GAPDH. For western blot analysis cells were lysed in radioimmune precipitation buffer and separated by SDS-PAGE. Antibodies to actin (sc01615, Santa Cruz), 139-H2AX (Cell Signaling), PARP (c-2-10, Biomol International) and p53 (D0-1, Santa Cruz) were used.
# NT2/D1 cells [3] = assay: Apoptosis by PARP cleavage and sub G1 DNA content; format: cell-based; conditions: cisplatin 0.5 μM; NT2/D1 versus NT2/D1-R1
# Description: as §1, §3
# NT2/D1 cells [4] = assay: Gene expression microarray with PAM cluster analysis (Tables 1-5); format: cell-based, human
# Description: The cisplatin treatment protocol has been previously described (Kerley-Hamilton et al. 2005. Oncogene 24:6090-6100).
# The same effect was not observed in cells treated with cisplatin; gene expression levels were not dramatically altered in cisplatin-treated cells. […] The genes clustered into distinct patterns.
# Next, partitioning around medoids (PAM) analysis was performed on the 1130 genes whose expression levels changed by 1.5-fold or greater as compared to control treatment. […] Changes in gene expression levels of representative genes for each cluster were confirmed in independent samples by real-time PCR (FIG. 10).
# (§4) Expression analysis was performed on the […] HumanHT-12 v3 or […] HumanHT-12 v4 bead chip arrays ([…]) and scanned on the BeadArray Reader ([…]) according to manufacturer's instructions.
# NT2/D1-R1 cells = assay: Apoptosis by PARP cleavage and sub G1 DNA content; format: cell-based; conditions: cisplatin; cisplatin-resistant NT2/D1-R1
# Description: as §2, §1, §3
# NT2 cells = assay: Gene set enrichment analysis (GSEA) of microarray data (Table 6); format: cell-based, human; conditions: Gene Sets Enriched in NT2 Cells with Cisplatin Treatment (0.5 μM for 3 days)
# Description: Gene set enrichment analysis (GSEA) was performed.
# as §4
smiles,measurement,setting,value
N.N.[Cl][Pt][Cl] [cisplatin],effects on cell viability and proliferation,NT2/D1 cells [1]; after 1 day of cisplatin treatment,minimal
same,effects on cell viability and proliferation,NT2/D1 cells [1]; by day two of cisplatin treatment,robust anti-proliferation and cell death effects
same,induction of phospho-H2AX,[2],can induce phospho-H2AX
same,"apoptotic responses (PARP cleavage, sub G1 DNA content)",NT2/D1 cells [3],induces these responses only in cisplatin-sensitive NT2/D1 cells
same,Cluster 2: unique genes whose expression levels were increased only by cisplatin treatment,"NT2/D1 cells [4]; 0.5 μM cisplatin 6 hours, 24 hour recovery",81 genes
same,Cluster 3: genes upregulated by both decitabine treatment and cisplatin treatment,NT2/D1 cells [4]; 1.5-fold or greater,71 genes
same,Cluster 5: genes down-regulated by both decitabine treatment and cisplatin treatment,NT2/D1 cells [4]; 1.5-fold or greater,88 genes
same,PARP cleavage,NT2/D1-R1 cells,does not induce PARP cleavage
same,"NES, AMIT_EGF_RESPONSE_120_MCF10A",NT2 cells,−2.2779
same,"NES, AMIT_EGF_RESPONSE_480_HELA",NT2 cells,−2.5999
same,"NES, AMUNDSON_DNA_DAMAGE_RESPONSE_TP53",NT2 cells,−2.2828
same,"NES, CONCANNON_APOPTOSIS_BY_EPOXOMICIN_UP",NT2 cells,−2.2899
same,"NES, DACOSTA_UV_RESPONSE_VIA_ERCC3_UP",NT2 cells,−2.3411
same,"NES, INGA_TP53_TARGETS",NT2 cells,−2.3095
same,"NES, KANNAN_TP53_TARGETS_UP",NT2 cells,−2.5961
same,"NES, KERLEY_RESPONSE_TO_CISPLATIN_UP",NT2 cells,−3.0393
same,"NES, SCHAVOLT_TARGETS_OF_TP53_AND_TP63",NT2 cells,−2.4114
same,"NES, WEIGEL_OXIDATIVE_STRESS_RESPONSE",NT2 cells,−2.3010
